Experimental findings from PubChem BioAssay AID330 (DTP/NCI, 2004) are described below.

For the experiment, the system named is P388 leukemia ip, CD2F1 mice, survival T/C. As to the kind of experiment: NCI In Vivo Anticancer Drug Screen. Data for tumor model P388 Leukemia (intraperitoneal) in CD2F1 (CDF1) mice. The settings on record: endpoint: median survival time, higher = longer survival. The gist of the method: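 Mice carrying the transplanted tumor received test compound or vehicle. Survival was recorded in each group, and the value is the treated-group measurement divided by that of the vehicle-treated control group.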

Setting [1] is: dose: 50.0 mg/kg/injection, schedule: Q01DX005 (ip), vehicle: Klucel (hydroxypropylcellulose) (HPC).
Setting [2] is: dose: 100.0 mg/kg/injection, schedule: Q01DX005 (ip), vehicle: Klucel (hydroxypropylcellulose) (HPC).
Where [3] appears, read: dose: 200.0 mg/kg/injection, schedule: Q01DX005 (ip), vehicle: Klucel (hydroxypropylcellulose) (HPC).
The mark [4] stands for this setting: dose: 50.0 mg/kg/injection, schedule: Q01DX005 (ip), vehicle: saline with Tween-80.
Setting [5] is: dose: 100.0 mg/kg/injection, schedule: Q01DX005 (ip), vehicle: saline with Tween-80.
Where [6] appears, read: dose: 200.0 mg/kg/injection, schedule: Q01DX005 (ip), vehicle: saline with Tween-80.
[7] abbreviates: dose: 50.0 mg/kg/injection, schedule: Q04DX002 (ip), vehicle: saline with Tween-80.
Setting [8] is: dose: 100.0 mg/kg/injection, schedule: Q04DX002 (ip), vehicle: saline with Tween-80.
The mark [9] stands for this setting: dose: 50.0 mg/kg/injection, schedule: Q01DX009 (ip), vehicle: Klucel (hydroxypropylcellulose) (HPC).
Where [10] appears, read: dose: 100.0 mg/kg/injection, schedule: Q01DX009 (ip), vehicle: Klucel (hydroxypropylcellulose) (HPC).
Setting [11] is: dose: 200.0 mg/kg/injection, schedule: Q01DX009 (ip), vehicle: Klucel (hydroxypropylcellulose) (HPC).
Setting [12] is: dose: 200.0 mg/kg/injection, schedule: Q04DX002 (ip), vehicle: saline with Tween-80.

Molecules are shown by their SMILES. Several values for one entry are separate records, joined by “and”; a condition that tells them apart may be missing. Equal values may be shown once. Toxic doses and inconclusive results are not listed.

Turning to `O=C(NC(CCSSCCC(NC(=O)OCc1ccccc1)C(=O)O)C(=O)O)OCc1ccccc1` (centres undefined), the T/C was 98 % of control (dose: 12.5 mg/kg/injection, schedule: Q01DX009 (ip), vehicle: other); 98 % of control (dose: 25.0 mg/kg/injection, schedule: Q01DX009 (ip), vehicle: other); 101 % of control (dose: 50.0 mg/kg/injection, schedule: Q01DX009 (ip), vehicle: other); 100 % of control (dose: 100.0 mg/kg/injection, schedule: Q01DX009 (ip), vehicle: other); 103 % of control (dose: 200.0 mg/kg/injection, schedule: Q01DX009 (ip), vehicle: other).
`Cc1nn2c(-c3ccccc3)cnnc2c1-c1ccccc1`: the T/C under setting [1] is 101 % of control, the T/C under setting [2] was 98 % of control and the T/C under setting [3] is 96 % of control.
With `CCCCCNC(=O)C(O)C(O)C(=O)NCCCCC` (centres undefined), the T/C is 104 % of control under setting [4], 101 % of control under setting [5] and 90 % of control under setting [6].
On the same counts, the results for `O=C1CN(c2ccc(Cl)cc2)C(=O)CN1/N=C/c1ccco1` are 103 % of control, 107 % of control and 100 % of control.
For `Fc1cccc(CSC(=S)Nc2ccccc2)c1`, the T/C was 106 % of control (dose: 100.0 mg/kg/injection, schedule: Q01DX001 (ip), vehicle: saline); 102 % of control (dose: 200.0 mg/kg/injection, schedule: Q01DX001 (ip), vehicle: saline); 102 % of control (dose: 400.0 mg/kg/injection, schedule: Q01DX001 (ip), vehicle: saline).
For `OCc1cc(-c2ccc(Cl)cc2)nc2c(C(F)(F)F)cccc12`, the T/C runs as follows: (dose: 100.0 mg/kg/injection, schedule: Q04DX003 (ip), vehicle: saline with Tween-80) 100 % of control; (dose: 200.0 mg/kg/injection, schedule: Q04DX003 (ip), vehicle: saline with Tween-80) 111 % of control; (dose: 400.0 mg/kg/injection, schedule: Q04DX003 (ip), vehicle: saline with Tween-80) 92 % of control.
Regarding `C/C(=N\NC(N)=Nc1ccc(C)cc1)c1ccc2c(c1)Cc1ccccc1-2`, the T/C (dose: 25.0 mg/kg/injection, schedule: Q04DX002 (ip), vehicle: saline with Tween-80) was 91 % of control; the T/C under setting [7] was 99 % of control; the T/C under setting [8] was 97 % of control.
With `CSC(=Nc1ccc(C)c(Cl)c1)NC#N`, the T/C was 98 % of control under setting [9], 91 % of control under setting [10] and 92 % of control under setting [11].
As to `OC(CCl)CN1CCN(CC(O)CCl)CC1` (centres undefined), the T/C reads like this: (dose: 25.0 mg/kg/injection, schedule: Q01DX005 (ip), vehicle: water) 150 % of control; (dose: 100.0 mg/kg/injection, schedule: Q01DX005 (ip), vehicle: water) 90 % of control and 92 % of control.
In the case of `O=C(OC1CC2CCC(C1)S2)c1ccco1` (centres undefined), the T/C reads like this: under setting [7], 109 % of control; under setting [8], 109 % of control; under setting [12], 110 % of control.
In the case of `Cc1cc(O)c(C(c2ccccc2)c2c(O)cc(C)[nH]c2=O)c(=O)[nH]1`, the T/C runs as follows: (dose: 25.0 mg/kg/injection, schedule: Q01DX009 (ip), vehicle: saline with Tween-80) 90 % of control; (dose: 50.0 mg/kg/injection, schedule: Q01DX009 (ip), vehicle: saline with Tween-80) 91 % of control; (dose: 100.0 mg/kg/injection, schedule: Q01DX009 (ip), vehicle: saline with Tween-80) 86 % of control.
With `COC(=O)[C@H]1O[C@H]1c1ccncc1`, the T/C is, setting by setting: under setting [1], 100 % of control and 104 % of control; under setting [2], 103 % of control and 92 % of control; under setting [3], 103 % of control and 94 % of control; (dose: 400.0 mg/kg/injection, schedule: Q01DX005 (ip), vehicle: Klucel (hydroxypropylcellulose) (HPC)) 101 % of control and 92 % of control.
As to `CCOP(O)(=S)OCC.[Ti]`, the T/C reads like this: under setting [9], 96 % of control; under setting [10], 101 % of control; under setting [11], 92 % of control.
Regarding `CC(=O)Oc1ccc2c3c1O[C@H]1[C@@H](OC(C)=O)C=C[C@H]4[C@@H](C2)N(C)CC[C@@]341`, the T/C runs as follows: (dose: 0.39 mg/kg/injection, schedule: Q01DX009 (ip), vehicle: saline) 100 % of control; (dose: 0.78 mg/kg/injection, schedule: Q01DX009 (ip), vehicle: saline) 101 % of control; (dose: 1.56 mg/kg/injection, schedule: Q01DX009 (ip), vehicle: saline) 94 % of control; (dose: 3.12 mg/kg/injection, schedule: Q01DX009 (ip), vehicle: saline) 95 % of control; (dose: 6.25 mg/kg/injection, schedule: Q01DX009 (ip), vehicle: saline) 100 % of control; (dose: 12.5 mg/kg/injection, schedule: Q01DX009 (ip), vehicle: saline) 110 % of control. For the same compound, the T/C is 100 % of control (dose: 25.0 mg/kg/injection, schedule: Q01DX009 (ip), vehicle: saline); 108 % of control (dose: 50.0 mg/kg/injection, schedule: Q01DX009 (ip), vehicle: saline); 117 % of control (dose: 100.0 mg/kg/injection, schedule: Q01DX009 (ip), vehicle: saline); 110 % of control (dose: 200.0 mg/kg/injection, schedule: Q01DX009 (ip), vehicle: saline).
Turning to `C=C1C2(OS(=O)(=O)C(F)(F)F)CCC(C2)C1(C)C` (centres undefined), the T/C was 103 % of control (dose: 60.0 mg/kg/injection, schedule: Q01DX005 (ip), vehicle: saline); 99 % of control (dose: 120.0 mg/kg/injection, schedule: Q01DX005 (ip), vehicle: saline); 100 % of control (dose: 240.0 mg/kg/injection, schedule: Q01DX005 (ip), vehicle: saline).
With `O=C(N=C1SC(=NC2CCCCC2)N1C1CCCCC1)c1ccccc1`, the T/C (dose: 100.0 mg/kg/injection, schedule: Q01DX001 (ip), vehicle: Klucel (hydroxypropylcellulose) (HPC)) was 95 % of control and the T/C (dose: 200.0 mg/kg/injection, schedule: Q01DX001 (ip), vehicle: Klucel (hydroxypropylcellulose) (HPC)) was 100 % of control.
With `CCCn1c(C)nc2c(N)cc(C(F)(F)F)cc21`, the T/C under setting [8] was 105 % of control; the T/C under setting [12] was 100 % of control; the T/C (dose: 400.0 mg/kg/injection, schedule: Q04DX002 (ip), vehicle: saline with Tween-80) was 95 % of control.
In the case of `CC(=O)C1CC[C@@]2(C)C(CC[C@H]3[C@@H]4CCC[C@H]([C@H](C)O)[C@@]4(C)CC[C@@H]32)C1` (some centres undefined), the T/C is 91 % of control (dose: 12.5 mg/kg/injection, schedule: Q01DX009 (ip), vehicle: Klucel (hydroxypropylcellulose) (HPC)); 91 % of control (dose: 25.0 mg/kg/injection, schedule: Q01DX009 (ip), vehicle: Klucel (hydroxypropylcellulose) (HPC)); 88 % of control under setting [9].
For the compound `COC(=O)c1ccc(C(=O)OC)c2nc3ccccc3nc12`, the T/C by setting is: (dose: 60.0 mg/kg/injection, schedule: Q01DX005 (ip), vehicle: Klucel (hydroxypropylcellulose) (HPC)) 97 % of control; (dose: 120.0 mg/kg/injection, schedule: Q01DX005 (ip), vehicle: Klucel (hydroxypropylcellulose) (HPC)) 100 % of control.
In the case of `Cc1ccc(N=Nc2c(O)n(-c3ccc(Br)cc3)c(=S)n(-c3ccccc3)c2=O)cc1`, the T/C (dose: 100.0 mg/kg/injection, schedule: Q01DX001 (ip), vehicle: saline with Tween-80) was 95 % of control; the T/C (dose: 200.0 mg/kg/injection, schedule: Q01DX001 (ip), vehicle: saline with Tween-80) is 100 % of control; the T/C (dose: 400.0 mg/kg/injection, schedule: Q01DX001 (ip), vehicle: saline with Tween-80) is 90 % of control.
Take `Cc1c(C)n(-c2ccccc2)c2nc(C)n(-c3ccccc3)c(=N)c12`: the T/C under setting [1] is 101 % of control and the T/C under setting [2] was 100 % of control.
